The values that follow come from ChEMBL document CHEMBL1201862, “PubChem BioAssay data set” (2004).

One may read the EC50 as the concentration at which the effect is half-maximal. In general, AC50 refers to the concentration at which the activity in the assay is half-maximal.

The structures appear in SMILES notation. Calls of active or inactive are those of the source. Bounds are passed on as bounds.

Data set [1] is described as follows: Trypanosoma cruzi growth suppression in host cells – NIH3T3 host cells, beta-gal luminescence, confirmation (AID 2044).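 Note: intracellular parasites grown in NIH/3T3 mouse fibroblasts as host cells; luminescent beta-galactosidase reporter signal from transgenic T. cruzi replicating inside host cells; inhibitors lower the luminescence signal.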 Type of data set: functional, cell-based.
Data set [2] in a line: NIH3T3 cell viability loss – ATP luminescence, mouse fibroblasts, counter-screen, dose response (AID 2010).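 Note: cells exposed to compound for about 90 hours before reading.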 Type of data set: functional, cell-based. A general note: A counterscreen serves to expose hits that act by an unwanted route or on another target.
Another data set concerns the target Cytochrome P450 2D6 (Homo sapiens, UniProt P10635).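 Note: CYP2D6 member of a cytochrome P450 panel assay.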
The next data set concerns the target Cytochrome P450 2C9 (Homo sapiens, UniProt P11712).
In a further data set the target is Cytochrome P450 2C19 (Homo sapiens, UniProt P33261). Nature of the data set: Cytochrome panel assay with activity outcomes. Panel member name: p450-cyp2c19 Compounds with AC50 equal or less than 10 uM are considered active. The format is functional.
Sequence of Cytochrome P450 2C19 (P33261 whole entry): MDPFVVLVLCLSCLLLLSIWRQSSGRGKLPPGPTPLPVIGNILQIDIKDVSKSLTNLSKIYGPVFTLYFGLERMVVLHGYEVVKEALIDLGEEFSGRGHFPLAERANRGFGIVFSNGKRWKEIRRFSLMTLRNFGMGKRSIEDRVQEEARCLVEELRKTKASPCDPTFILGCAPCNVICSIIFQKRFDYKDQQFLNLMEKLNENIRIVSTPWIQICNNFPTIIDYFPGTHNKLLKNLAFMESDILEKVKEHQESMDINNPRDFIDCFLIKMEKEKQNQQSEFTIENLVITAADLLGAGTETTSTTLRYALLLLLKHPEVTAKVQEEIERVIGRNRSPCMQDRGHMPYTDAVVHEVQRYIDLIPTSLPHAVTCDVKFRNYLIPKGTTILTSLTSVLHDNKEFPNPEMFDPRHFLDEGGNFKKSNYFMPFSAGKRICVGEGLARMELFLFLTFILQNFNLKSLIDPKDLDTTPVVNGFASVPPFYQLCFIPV
For a further data set, the target named is Cytochrome P450 3A4 (Homo sapiens, UniProt P08684).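 Note: CYP3A4 tested as one member of a cytochrome P450 panel screen.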
Sequence of Cytochrome P450 3A4 (P08684 whole entry): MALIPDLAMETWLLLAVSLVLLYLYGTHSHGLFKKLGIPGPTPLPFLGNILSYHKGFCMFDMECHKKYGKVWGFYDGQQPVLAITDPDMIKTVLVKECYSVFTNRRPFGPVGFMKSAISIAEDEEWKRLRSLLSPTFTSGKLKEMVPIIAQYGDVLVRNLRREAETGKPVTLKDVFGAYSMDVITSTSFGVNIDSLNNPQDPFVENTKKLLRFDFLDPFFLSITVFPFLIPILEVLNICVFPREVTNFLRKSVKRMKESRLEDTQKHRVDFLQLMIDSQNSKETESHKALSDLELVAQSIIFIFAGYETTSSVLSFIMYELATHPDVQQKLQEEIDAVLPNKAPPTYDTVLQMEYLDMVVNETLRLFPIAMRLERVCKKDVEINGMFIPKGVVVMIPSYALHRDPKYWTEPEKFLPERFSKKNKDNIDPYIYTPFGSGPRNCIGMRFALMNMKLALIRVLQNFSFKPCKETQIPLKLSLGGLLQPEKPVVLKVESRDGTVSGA
For another data set, the target named is T1, Protein RecA (Mycobacterium tuberculosis, UniProt P9WHJ3).
T1 sequence (P9WHJ3 whole entry): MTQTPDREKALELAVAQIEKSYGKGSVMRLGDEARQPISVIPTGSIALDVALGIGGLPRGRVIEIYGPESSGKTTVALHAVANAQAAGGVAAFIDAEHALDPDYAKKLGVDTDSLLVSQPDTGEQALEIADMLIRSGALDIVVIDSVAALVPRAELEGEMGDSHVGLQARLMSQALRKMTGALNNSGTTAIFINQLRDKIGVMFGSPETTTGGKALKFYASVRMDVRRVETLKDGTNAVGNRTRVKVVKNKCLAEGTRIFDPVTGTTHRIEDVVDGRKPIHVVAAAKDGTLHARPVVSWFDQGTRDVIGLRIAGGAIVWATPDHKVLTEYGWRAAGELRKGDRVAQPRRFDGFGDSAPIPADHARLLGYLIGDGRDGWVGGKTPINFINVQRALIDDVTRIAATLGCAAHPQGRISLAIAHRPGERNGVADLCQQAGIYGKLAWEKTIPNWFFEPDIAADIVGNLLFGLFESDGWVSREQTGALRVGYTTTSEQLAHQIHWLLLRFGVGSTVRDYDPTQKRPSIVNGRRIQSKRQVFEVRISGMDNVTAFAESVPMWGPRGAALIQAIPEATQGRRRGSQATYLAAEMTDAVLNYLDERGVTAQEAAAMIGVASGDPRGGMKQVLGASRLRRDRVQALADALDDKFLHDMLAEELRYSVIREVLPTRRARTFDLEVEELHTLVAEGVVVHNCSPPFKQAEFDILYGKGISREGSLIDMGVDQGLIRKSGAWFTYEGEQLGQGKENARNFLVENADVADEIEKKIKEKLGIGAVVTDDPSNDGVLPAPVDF
Put plainly: Fluorescence Cell-Free Homogeneous Dose Retest to Identify Inhibitors of RecA-Intein Splicing Activity. [Related pubchem assays (depositor defined):AID2097, AID2223, AID489010, AID492950]. The format is functional.

Sequence of Cytochrome P450 2D6 (P10635 whole entry): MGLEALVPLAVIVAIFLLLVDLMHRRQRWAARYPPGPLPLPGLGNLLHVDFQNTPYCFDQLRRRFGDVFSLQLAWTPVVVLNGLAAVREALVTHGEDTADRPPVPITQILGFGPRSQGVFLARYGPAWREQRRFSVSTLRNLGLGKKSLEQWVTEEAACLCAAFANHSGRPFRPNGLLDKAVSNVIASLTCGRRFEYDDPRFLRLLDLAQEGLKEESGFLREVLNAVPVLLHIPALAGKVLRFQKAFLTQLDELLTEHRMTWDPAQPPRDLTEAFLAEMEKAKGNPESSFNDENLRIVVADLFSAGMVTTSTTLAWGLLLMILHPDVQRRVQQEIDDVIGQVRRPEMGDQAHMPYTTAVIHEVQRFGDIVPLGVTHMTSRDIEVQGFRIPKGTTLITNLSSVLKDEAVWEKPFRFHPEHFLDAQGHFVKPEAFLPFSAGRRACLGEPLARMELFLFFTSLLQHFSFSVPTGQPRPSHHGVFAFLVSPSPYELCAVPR
Sequence of Cytochrome P450 2C9 (P11712 whole entry): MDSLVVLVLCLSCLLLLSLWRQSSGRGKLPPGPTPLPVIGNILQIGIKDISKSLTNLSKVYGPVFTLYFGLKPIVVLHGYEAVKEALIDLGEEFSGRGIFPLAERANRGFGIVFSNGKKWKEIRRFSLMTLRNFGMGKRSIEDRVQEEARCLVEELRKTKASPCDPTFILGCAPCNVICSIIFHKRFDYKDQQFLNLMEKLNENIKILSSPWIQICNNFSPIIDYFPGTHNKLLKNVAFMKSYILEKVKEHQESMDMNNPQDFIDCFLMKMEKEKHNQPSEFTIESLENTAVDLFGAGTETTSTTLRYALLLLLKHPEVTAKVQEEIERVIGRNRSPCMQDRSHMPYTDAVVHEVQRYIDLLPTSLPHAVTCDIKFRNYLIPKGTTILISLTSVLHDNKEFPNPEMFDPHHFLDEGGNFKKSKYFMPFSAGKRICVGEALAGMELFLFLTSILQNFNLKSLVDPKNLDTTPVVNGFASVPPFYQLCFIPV

With `CCCCCC(=O)Nc1cc(S(=O)(=O)N2CCOCC2)ccc1N1CCN(C)CC1`, the EC50 in data set [1] was 0.813 µM (active); in data set [2] it was > 60 µM (not active). For the compound `CC#CCOC(=O)c1c(C)nc2sc3c(c2c1N)CC[C@@H](O)C3`, the AC50 was 31.6 µM (inconclusive) on Cytochrome P450 2D6 and 15.8 µM (inconclusive) on Cytochrome P450 2C9. With `Cn1c(=O)cnc2cnc(Oc3ccccc3)nc21`, the AC50 on Cytochrome P450 2C19 (read-out: AC50) was 39.8 µM (inconclusive).

Regarding `COC(=O)[C@@]1(Cc2ccccc2)[C@H]2c3cc(C(=O)N(C)C)n(Cc4ccc(O)c(OC)c4)c3C[C@H]2CN1C(=O)c1ccccc1`, the AC50 on Cytochrome P450 2D6 is 31.6 µM (inconclusive). As to `CCN1CCCC1CNC(=O)c1ccc(Sc2ccc(F)cc2)c([N+](=O)[O-])c1` (stereo unspecified), the EC50 in data set [1] was 0.879 µM (active); in data set [2] it was > 60 µM (inconclusive). For `Nc1n[nH]c2ccccc12`, on Cytochrome P450 3A4, the AC50 was 3.98 µM (inconclusive).

With `Cc1c(CCC(C)C)c(-n2ccnc2C)n2c(nc3ccccc32)c1C#N`, the AC50 is 14.1 µM (inconclusive) on Cytochrome P450 3A4 and 3.98 µM (inconclusive) at Cytochrome P450 2C9. As to `O=[N+]([O-])c1ccc(C2=Nn3c(nnc3-c3ccc(Cl)cc3)SC2)o1`, the AC50 at Cytochrome P450 2D6 is 5.01 µM (inconclusive); on Cytochrome P450 2C9 it was 7.94 µM (inconclusive). With `Cn1c(=O)c(-c2cccc(F)c2)nc2cncnc21`, the AC50 on Cytochrome P450 3A4 is 20 µM (inconclusive). In the case of `Cc1ccccc1C(=O)N1CCc2ccccc2C1`, the AC50 at Cytochrome P450 3A4 is 6.31 µM (inconclusive); on Cytochrome P450 2C9 it was 5.62 µM (inconclusive).

`Cc1nc(C(=O)Nc2ccc(Cl)cc2)sc1C1(C)CC(c2cccc([N+](=O)[O-])c2)=NO1` (stereo unspecified): the EC50 was 0.545 µM (active) in data set [1] and > 60 µM (not active) in data set [2].

`CSc1ccccc1NC(=O)c1cc(-c2cccnc2)nc2ccc(Br)cc12`: the figures for the EC50 in data set [1] and in data set [2] were 2 µM (active) and > 60 µM (not active), respectively. Turning to `CN(C)c1ncnc2ccc(-c3ccccc3C#N)cc12`, the AC50 on Cytochrome P450 3A4 is 1.58 µM (inconclusive). For the compound `COc1ccc(-c2nc3cnc(N4CCN(C)CC4)nc3n(Cc3cccs3)c2=O)cc1`, the AC50 entry on Cytochrome P450 2C19 is “inconclusive”. For the compound `Cc1cc2c(cc1C)NC1=C(O)[C@@H](c3c[nH]c4ccc(COc5ccccc5)cc34)OC1=N2`, at Cytochrome P450 2C9, the AC50 was 7.94 µM (inconclusive). `c1ccc(Nc2cccc(Nc3ccccc3)c2)cc1`: the EC50 in data set [1] is 0.937 µM (active); in data set [2], > 60 µM (not active).

As to `O=C1CCC[C@@H]2Cc3[nH]c4c(Cl)ccc(Cl)c4c3[C@@H]3CCN1[C@H]23`, the values for the EC50 in data set [1] and in data set [2] were 1.33 µM (active) and > 60 µM (not active), respectively. With `CCCOc1ccc(C(=O)NC(=S)Nc2nc3ccc(C)cc3s2)cc1`, the AC50 on Cytochrome P450 2C19 (read-out: AC50) is 15.8 µM (inconclusive). Consider `O=C(CSc1nc2ccccc2c2ccccc12)c1ccccc1`, for which the AC50 on Cytochrome P450 2C19 (read-out: AC50) is 6.31 µM (inconclusive); at Cytochrome P450 3A4 it was 3.98 µM (inconclusive). `O=C(O)C(=O)Cc1ccc2c(c1)OCO2`: at Cytochrome P450 2C19, the concentration at half-maximal activity (AC50) entry is “inconclusive”. For the compound `CCCC/C=C/C(NC(=O)c1ccco1)c1ccccc1` (stereo unspecified), the AC50 at Cytochrome P450 2D6 was 39.8 µM (inconclusive). As for `O=c1c2ccccc2c(-c2ccc(Br)cc2)nn1Cc1ccccc1`, the figures for the half-maximal activity concentration (AC50) at Cytochrome P450 2C19 (read-out: AC50), on Cytochrome P450 3A4 and on Cytochrome P450 2C9 were 5.62 µM (inconclusive), 25.1 µM (inconclusive) and 3.55 µM (inconclusive), respectively.

For `Cc1nc(-c2cccnc2)sc1C(N)=O`, the figures for the AC50 on Cytochrome P450 2C19 (read-out: AC50) and at Cytochrome P450 3A4 were 5.01 µM (inconclusive) and 28.2 µM (inconclusive), respectively.

Take `COc1ccc(-c2cn3c([n+]2-c2ccccc2)SCC3)cc1`: the values for the EC50 in data set [1] and in data set [2] were 1.3 µM (active) and > 60 µM (not active), respectively. On to `C#CCCCO/N=C1/C[C@@H](O)[C@@H](O)[C@@H]2[C@@H]3C(=O)N(C[C@@H]4CCCO4)C(=O)[C@H]3CC[C@H]12`, for which the AC50 at Cytochrome P450 3A4 was 6.31 µM (inconclusive). `N#Cc1ccc(CN2CCCC3(CCNCC3)C2)cc1`: the AC50 at Cytochrome P450 2D6 was 20 µM (inconclusive). Consider `Clc1ccc(NC2=NCCCS2)cc1Cl`, for which the EC50 in data set [1] is 1.8 µM (active); in data set [2], > 60 µM (not active). As to `O=C1Nc2ccccc2C(O)(C(=O)NCc2ccc3c(c2)OCO3)N1c1ccc(Cl)c(Cl)c1` (stereo unspecified), at Cytochrome P450 2D6, the AC50 was 1.12 µM (inconclusive). Regarding `O=C1C2CCC(C(O)C2)N1Cc1ccccc1` (stereo unspecified), the AC50 at Cytochrome P450 3A4 is 17.8 µM (inconclusive). On to `N#C/C(=C(/O)CN1CCCCC1)c1nc(-c2ccc(Cl)cc2)cs1`, for which the AC50 at Cytochrome P450 2C19 (read-out: AC50) and on Cytochrome P450 3A4 was 10 µM (inconclusive) in each case. On to `CCN1CCN(C(c2ccccn2)c2c(NC(=O)c3ccccc3)sc(C)c2C)CC1` (stereo unspecified), for which the AC50 at Cytochrome P450 2C19 (read-out: AC50) was 17.8 µM (inconclusive). In the case of `COc1ncc2nc(C)c(=O)n(-c3ccccc3)c2n1`, the AC50 at Cytochrome P450 2C19 (read-out: AC50) is 39.8 µM (inconclusive); on Cytochrome P450 3A4, 25.1 µM (inconclusive). `CCCC1(C(=O)OC)C=C2C(=C(c3ccccc3)C(=O)C2C)CN1` (stereo unspecified): on Cytochrome P450 3A4, the AC50 is 10 µM (inconclusive). The same measure, in the same setting: with `CCc1cc2c(nc1CC)CCN(CC/C(C)=N/OCC[C@@H]1C=C[C@H](OC(C)=O)[C@H](COC(C)=O)O1)C2` the figure was 3.16 µM (inconclusive). With `O=C(/C=C/c1cn(-c2ccccc2)nc1-c1cccc(Cl)c1)N1CCN(c2ccccn2)CC1`, the EC50 was 1.72 µM (active) in data set [1] and > 60 µM (not active) in data set [2].

Turning to `O=C(N[C@@]1(C(=O)O)C[C@@H]1c1ccccc1)c1ccccc1`, the AC50 entry at Cytochrome P450 2C19 was “inconclusive”. `O=c1c(-c2ccc(Cl)cc2)nc2cnc(N3CCNCC3)nc2n1-c1ccccc1`: the AC50 at Cytochrome P450 3A4 was 12.6 µM (inconclusive); on Cytochrome P450 2C9, 15.8 µM (inconclusive).

For `COC(=O)c1scc(C)c1NC(=O)Cc1ccccc1`, the AC50 on Cytochrome P450 3A4 was 22.4 µM (inconclusive). With `COCCn1c(=O)c(-c2ccccc2)nc2cnc(OC)nc21`, the AC50 on Cytochrome P450 3A4 is 25.1 µM (inconclusive); on Cytochrome P450 2C9, 20 µM (inconclusive). On to `COc1ccc(N2CCN(C(CNC(=O)C(=O)NCCCn3ccnc3)c3cccnc3)CC2)cc1` (stereo unspecified), for which the half-maximal effective concentration (EC50) was < 0.1 µM (active) in data set [1] and 10.4 µM (active) in data set [2]. For `COCCn1c(=O)cnc2cnc(Oc3cccc(Cl)c3)nc21`, the AC50 at Cytochrome P450 3A4 is 31.6 µM (inconclusive). Take `CN1CCN(c2ccccc2NC(=O)c2ccc(-c3ccc(Br)cc3)o2)CC1`: the EC50 in data set [1] is 2.18 µM (active); in data set [2] it was 4.08 µM (active).

Turning to `Cc1nn(Cc2ccc(C(=O)Nc3ccc(C(=O)OC(C)C)cc3)o2)c(C)c1Cl`, the concentration giving a half-maximal response (EC50) in data set [1] was 2.86 µM (active); in data set [2] it was > 60 µM (not active). Regarding `Cc1ccc(-n2c(C)cc(C(=S)N3CCOCC3)c2C)cc1C`, the values for the AC50 at Cytochrome P450 2D6 and at Cytochrome P450 3A4 were 22.4 µM (inconclusive) and 31.6 µM (inconclusive), respectively. Take `CC(C(=O)N1CCc2ccccc21)N1CCN(Cc2ccccc2)CC1` (stereo unspecified): the concentration for a half-maximal effect (EC50) was 0.793 µM (active) in data set [1] and > 60 µM (not active) in data set [2]. For the compound `O=C(CCN1CCCCC1)N1CCc2c([nH]c3ccccc23)[C@H]1c1cccnc1`, the AC50 entry is “inconclusive” on Cytochrome P450 2C19 and 3.16 µM (inconclusive) on Cytochrome P450 2D6. With `COc1ccc(C(=O)c2ccc([N+](=O)[O-])cc2Cl)cc1`, the EC50 was 2.15 µM (active) in data set [1] and > 30 µM (not active) in data set [2].

Take `C=CCSc1ncccc1C(=O)NCc1ccc(C)cc1`: the AC50 at Cytochrome P450 2C9 is 12.6 µM (inconclusive). Turning to `N#Cc1c(Cl)cccc1-n1ccnc1`, the AC50 on Cytochrome P450 2D6 is 7.08 µM (inconclusive); at Cytochrome P450 2C9, 2.82 µM (inconclusive).

Turning to `Cc1onc(-c2ccccc2Cl)c1C(=O)NCC(=O)O`, the AC50 at Cytochrome P450 2C19 (read-out: AC50) is 39.8 µM (inconclusive).

As for `CCCc1n[nH]c2c1C(c1ccc(OCCN3CCOCC3)c(OCC)c1)C(C#N)=C(N)O2` (stereo unspecified), the EC50 on Protein RecA is 10 µM (active). `O=C(CN1CCCC1)N/N=C/c1ccc(-c2cccc(Cl)c2)o1`: the AC50 on Cytochrome P450 2C9 is 15.8 µM (inconclusive). For the compound `O=C(N/N=C/c1ccc(Cl)cc1Cl)c1cccc(F)c1`, the AC50 at Cytochrome P450 2D6 is 8.91 µM (inconclusive); at Cytochrome P450 3A4 it was 31.6 µM (inconclusive).

`Cc1cccc(NC(=O)Nc2ccncc2)c1`: the EC50 was 0.781 µM (active) in data set [1] and > 60 µM (not active) in data set [2]. Take `O=C(O)/C=C\c1c[nH]cn1` [CIS-UROCANIC ACID]: the AC50 at Cytochrome P450 3A4 was 0.251 µM (inconclusive).
